The values below come from article PMC8303886, “Polyphenylglyoxamide-Based Amphiphilic Small Molecular Peptidomimetics as Antibacterial Agents with Anti-Biofilm Activity” (International Journal of Molecular Sciences, 2021).

Converted amounts (≈) assume the structure as drawn. “And” between values parts separate entries of the source, which are not always exact repeats. Equal values may be shown once. Read-outs that look alike come from different tables or passages of the source.

One data set concerns E. coli (K12). The data set is described as follows: Minimum inhibitory concentration (MIC) assay against E. coli. Type of data set: cell-based. Conditions: Escherichia coli.
In data set [1] the test system is MRC-5 normal human lung fibroblasts. The data set is described as follows: MTT cytotoxicity assay. In kind it is cell-based. Conditions: Homo sapiens, MRC5, 72 h, 72 h drug incubation, read-out: IC50 against MRC-5 normal human lung fibroblasts. Here is the method: The IC50 values of the tested peptidomimetics were determined from a dose-response curve. […] The therapeutic indices for each tested peptidomimetic against Gram-positive S. aureus and Gram-negative E. coli were calculated by dividing the IC50 value against human cells by the corresponding MIC value (Table 2).
The toxicity of the peptidomimetics against normal human lung fibroblasts MRC-5 cells was measured, using an MTT (3-(4,5-dimethylthiazol-2-yl)-2,5-diphenyltetrazolium bromide) (Sigma Aldrich, St. Louis, MO, USA) colorimetric assay. The cells were cultured in minimal essential medium (MEM, Invitrogen) containing 10% foetal bovine serum (FBS). The cells were maintained at 37 °C in 5% CO2 as an adherent monolayer and was passaged upon reaching confluence by standard cell culture techniques. MRC-5 cells were seeded at 5000 cells/well in 96-well plates to ensure full confluence (quiescence) and left overnight to adhere to the plate wells. The adherent cells were treated with 1–500 μM of compounds by dissolving in DMSO and serially diluting with media. TY-01 was used as the positive control. The final concentration of DMSO was 0.5% (v/v). After the 72 h drug incubation, […] stock MTT solution (5 mg/mL) was added, and the cells were incubated for another 3.5–4 h. The MTT solution containing media was carefully aspirated without displacing the purple crystals from the bottom, and […] acid-isopropanol was added to all wells and mixed slowly by shaking with an orbital shaker to dissolve the dark blue crystals. […] The determination of IC50 values was performed using GraphPad Prism 7 (GraphPad, San Diego, CA, USA). Each experiment was performed in triplicate and was repeated in three independent experiments.

The next data set deals with P. aeruginosa (PAO1). The data set is described as follows: Minimum inhibitory concentration (MIC) assay against P. aeruginosa. As to conditions: Pseudomonas aeruginosa. Type of data set: cell-based.
The subject of data set [2] is S. aureus (SA38). As to the kind of experiment: Minimum inhibitory concentration (MIC) assay against S. aureus. In kind it is cell-based, Staphylococcus aureus. Conditions: Staphylococcus aureus, S. aureus SA38; read-out: MIC S. aureus.
For data set [3], the system named is pre-established S. aureus biofilms. The data set is described as follows: Disruption of pre-established S. aureus biofilms (crystal violet assay). In kind it is cell-based, Staphylococcus aureus. On the procedure: As bacterial biofilms are one of the major challenges in treating bacterial infection, the ability of the synthesised peptidomimetics to disrupt pre-established biofilms was investigated.
Bacterial cultures (S. aureus and E. coli) were cultured in MHB at 37 °C with shaking at 120 rpm for 24 h. The resulting bacterial culture was washed twice with MHB with centrifugation after each wash. The bacterial solution was then diluted with fresh MHB to a turbidity of OD660 = 0.1 in MHB (equivalent to 10^8 colony forming unit (CFU)/mL of bacteria), followed by diluting to 10^6 CFU/mL in MHB. A total of 200 µL of the bacterial solution was dispensed to wells in a flat-bottom 96-well plate (Costar). The biofilm was then grown in the plate at 37 °C for 24 h. After incubation, loosely bound cells were washed away with 1× phosphate-buffered saline (PBS, pH 7.4). The biofilms were then supplemented with different concentrations of peptidomimetics dissolved in DMSO and incubated at 37 °C with shaking at 120 rpm for a further 24 h. Biofilms adhered on the plate substratum were quantified, using crystal violet staining as described previously. The experiment was performed in triplicate.

The test system of data set [4] is S. aureus (SA38). As to conditions: previously reported, cited from earlier work.
The mark [5] stands for this setting: highest concentration tested 250 μM.

Take `CCCCCCCCCCCCCCCCS(=O)(=O)Nc1ccccc1C(=O)C(=O)NCCC[N+](C)(C)C.[I-]` [Compound 18a, 3-(2-(2-(Hexadecylsulfonamido)phenyl)-2-oxoacetamido)-N,N,N-trimethylpropan-1-aminium iodide]: the MIC in the data set with E. coli (K12) was over 250 µM; against P. aeruginosa (PAO1) (setting [5]), over 250 µM; with S. aureus (SA38) [2], 8 µM and 5.4 µg/mL. In addition, the IC50 in data set [1] was 52.4 µM and 35.6 µg/mL. Also, the “disruption of pre-established S. aureus biofilms” value (from here on “disruption”) in data set [3] (1× MIC, 24 h treatment) is on record as 20–36%.

`CCCCCCCCCCCCS(=O)(=O)Nc1ccc(Br)cc1C(=O)C(=O)NCCCNC(=N)N.Cl` [Compound 34b, 2-(5-Bromo-2-(dodecylsulfonamido)phenyl)-N-(3-guanidinopropyl)-2-oxoacetamide hydrochloride] yielded a melting point of 50 to 50.1 °C. Besides, in the data set on E. coli (K12), the MIC was > 250 µM and > 153 µg/mL. In addition, the IC50 in data set [1] is 21.1 µM and 14.8 µg/mL. Moreover, the MIC in the data set with P. aeruginosa (PAO1) was over 153 µg/mL. In addition, the minimal inhibitory concentration (MIC) against P. aeruginosa (PAO1) (setting [5]) is over 250 µM. Further, in the data set on S. aureus (SA38) [2], the MIC was 16 µM and 9.8 µg/mL. Besides, in data set [3] (1× MIC, 24 h treatment), the “disruption” value is 20–36% and 36%. In data set [3] (4× MIC, 24 h treatment (32 μM for 17c)), the “disruption” value came out at 42%.

Consider `CCCCCCCCCCCCCCCCS(=O)(=O)Nc1ccc(-c2ccccc2)cc1C(=O)C(=O)NCCCN(C)C` [Compound 12c, N-(3-(Dimethylamino)propyl)-2-(4-(hexadecylsulfonamido)-[1,1′-biphenyl]-3-yl)-2-oxoacetamide], for which the melting point is 76.7 to 79.4 °C. In the data set on S. aureus (SA38) [2], the MIC was > 250 µM and > 153 µg/mL.

In turn, `CCCCCCCCCCCCCCCCS(=O)(=O)Nc1ccc(Br)cc1C(=O)C(=O)NCCCNC(=N)N.Cl` [Compound 35b, 2-(5-Bromo-2-(hexadecylsulfonamido)phenyl)-N-(3-guanidinopropyl)-2-oxoacetamide hydrochloride] came in with a melting point of 64.3 to 66.6 °C. Further, the MIC with S. aureus (SA38) [2] was > 250 µM and > 167 µg/mL.

Regarding `CCCCCCCCS(=O)(=O)Nc1ccc(-c2ccc(-c3ccccc3)cc2)cc1C(=O)C(=O)NCCCNC(=N)N.Cl` [Compound 33d, N-(3-Guanidinopropyl)-2-(4-(octylsulfonamido)-[1,1′:4′,1″-terphenyl]-3-yl)-2-oxoacetamide hydrochloride], the melting point was 49.6 to 50.1 °C. The IC50 in data set [1] was 16.9 µM and 10.6 µg/mL. For the same compound, in the data set on S. aureus (SA38) [2], the MIC was 16 µM and 10 µg/mL.

Take `CCCCCCCCCCCCCCCCS(=O)(=O)Nc1ccc(-c2ccccc2)cc1C(=O)C(=O)NCCCNC(=N)N.Cl` [Compound 35c, N-(3-Guanidinopropyl)-2-(4-(hexadecylsulfonamido)-[1,1′-biphenyl]-3-yl)-2-oxoacetamide hydrochloride]: the melting point was 74.5 to 77.1 °C. In addition, the MIC in the data set on S. aureus (SA38) [2] was > 250 µM and > 166 µg/mL.

Consider `CCCCCCCCS(=O)(=O)Nc1ccc(Br)cc1C(=O)C(=O)NCCCNC(=N)N` [Compound 33b], for which the “MIC S. aureus” value is 12 μM and 6.7 μg/mL in the data set on S. aureus (SA38) [4] (listed as 1, 33b); 12 µM (≈ 6.22 µg/mL) in the data set with S. aureus (SA38) [4] (listed as 1).

As for `CCCCCCCCCCCCS(=O)(=O)Nc1ccc(-c2ccccc2)cc1C(=O)C(=O)NCCCNC(=N)N.Cl` [Compound 34c, 2-(4-(Dodecylsulfonamido)-[1,1′-biphenyl]-3-yl)-N-(3-guanidinopropyl)-2-oxoacetamide hydrochloride], the melting point was in the range of 73.2 to 73.5 °C. Further, the MIC in the data set on S. aureus (SA38) [2] is 32 µM and 19 µg/mL.

On to `CCCCCCCCS(=O)(=O)Nc1ccccc1C(=O)C(=O)NCCCN(C)C` [Compound 13a], for which the “MIC S. aureus” value in the data set on S. aureus (SA38) [4] was > 250 μM and > 116 μg/mL.
